Source: patent publication US20230049952A1, “METHODS AND COMPOUNDS FOR RESTORING MUTANT P53 FUNCTION” (PMV Pharmaceuticals, Inc., priority 2020, published 2023)

Tested on: NF-κB signaling pathway in MT373 tumors
Test: MT373 syngeneic sarcoma model: mouse NF-κB signaling pathway profiling panel
Type: in vivo
Settings: for Ccl2 mRNA downregulation / Csf2 mRNA downregulation / Egfr mRNA downregulation / Fas1 mRNA downregulation / Ifnγ mRNA downregulation / Il1α mRNA downregulation / Il1β mRNA downregulation: 150 mg/kg BID×1

CCn1c(C#CCNc2ccccc2)cc2cc(CNC3CCN(C)CC3)ccc21 [Compound 1, 1-Anilino-3-{1-ethyl-5-[(1-methyl-4-piperidylamino)methyl]-1H-indol-2-yl}-2-propyne]
Ccl5 fold increase over or percent reduction vs vehicle control (150 mg/kg BIDx1, […]): 2.85 ± 0.20 fold or % | Cd27 fold increase over or percent reduction vs vehicle control (150 mg/kg BIDx1, […]): 1.48 ± 0.16 fold or % | Cd40 fold increase over or percent reduction vs vehicle control (150 mg/kg BIDx1, […]): 1.78 ± 0.80 fold or % | Cflar fold increase over or percent reduction vs vehicle control (150 mg/kg BIDx1, […]): 6.22 ± 11.55 fold or % | Chuk fold increase over or percent reduction vs vehicle control (150 mg/kg BIDx1, […]): 1.16 ± 0.33 fold or % | Crebbp fold increase over or percent reduction vs vehicle control (150 mg/kg BIDx1, […]): 16.61 ± 5.43 fold or % | Csf1 fold increase over or percent reduction vs vehicle control (150 mg/kg BIDx1, […]): 1.10 ± 0.10 fold or % | Csf2 fold increase over or percent reduction vs vehicle control (150 mg/kg BIDx1, […]): 2.00 ± 1.31 fold or % | Csf3 fold increase over or percent reduction vs vehicle control (150 mg/kg BIDx1, […]): 52.98 ± 22.53 fold or % | Egfr fold increase over or percent reduction vs vehicle control (150 mg/kg BIDx1, […]): 41.90 ± 8.16 fold or % | Egr1 fold increase over or percent reduction vs vehicle control (150 mg/kg BIDx1, […]): 54.35 ± 3.91 fold or % | Eif2ak2 fold increase over or percent reduction vs vehicle control (150 mg/kg BIDx1, […]): 18.72 ± 7.21 fold or % | Elk1 fold increase over or percent reduction vs vehicle control (150 mg/kg BIDx1, […]): 7.14 ± 8.40 fold or % | F2r fold increase over or percent reduction vs vehicle control (150 mg/kg BIDx1, […]): 1.01 ± 0.12 fold or % | Fadd fold increase over or percent reduction vs vehicle control (150 mg/kg BIDx1, […]): 5.68 ± 5.62 fold or % | Fasl fold increase over or percent reduction vs vehicle control (150 mg/kg BIDx1, […]): 3.17 ± 0.74 fold or % | Fos fold increase over or percent reduction vs vehicle control (150 mg/kg BIDx1, […]): 44.44 ± 21.93 fold or % | Hmox1 fold increase over or percent reduction vs vehicle control (150 mg/kg BIDx1, […]): 40.88 ± 33.56 fold or % | Icam1 fold increase over or percent reduction vs vehicle control (150 mg/kg BIDx1, […]): 1.41 ± 0.25 fold or % | Ifng fold increase over or percent reduction vs vehicle control (150 mg/kg BIDx1, […]): 3.22 ± 0.99 fold or % | Ikbkb fold increase over or percent reduction vs vehicle control (150 mg/kg BIDx1, […]): 6.97 ± 8.47 fold or % | Ikbke fold increase over or percent reduction vs vehicle control (150 mg/kg BIDx1, […]): 0.36 ± 10.26 fold or % | Ikbkg fold increase over or percent reduction vs vehicle control (150 mg/kg BIDx1, […]): 9.50 ± 15.53 fold or % | Il1a fold increase over or percent reduction vs vehicle control (150 mg/kg BIDx1, […]): 1.02 ± 0.18 fold or % | Il1b fold increase over or percent reduction vs vehicle control (150 mg/kg BIDx1, […]): 1.39 ± 0.34 fold or % | Il1r1 fold increase over or percent reduction vs vehicle control (150 mg/kg BIDx1, […]): 28.14 ± 8.59 fold or % | Il10 fold increase over or percent reduction vs vehicle control (150 mg/kg BIDx1, […]): 34.39 ± 10.47 fold or % | Irak1 fold increase over or percent reduction vs vehicle control (150 mg/kg BIDx1, […]): 5.30 ± 10.81 fold or % | Irak2 fold increase over or percent reduction vs vehicle control (150 mg/kg BIDx1, […]): 1.05 ± 0.12 fold or % | Irf1 fold increase over or percent reduction vs vehicle control (150 mg/kg BIDx1, […]): 1.11 ± 0.14 fold or % | Jun fold increase over or percent reduction vs vehicle control (150 mg/kg BIDx1, […]): 26.73 ± 6.02 fold or % | Lta fold increase over or percent reduction vs vehicle control (150 mg/kg BIDx1, […]): 1.87 ± 0.82 fold or % | Ltbr fold increase over or percent reduction vs vehicle control (150 mg/kg BIDx1, […]): 1.13 ± 0.10 fold or % | Map3k1 fold increase over or percent reduction vs vehicle control (150 mg/kg BIDx1, […]): 16.75 ± 8.45 fold or % | Mapk3 fold increase over or percent reduction vs vehicle control (150 mg/kg BIDx1, […]): 19.93 ± 6.52 fold or % | Myd88 fold increase over or percent reduction vs vehicle control (150 mg/kg BIDx1, […]): 9.52 ± 8.80 fold or % | Nfkb1 fold increase over or percent reduction vs vehicle control (150 mg/kg BIDx1, […]): 5.72 ± 2.88 fold or % | Nfkb2 fold increase over or percent reduction vs vehicle control (150 mg/kg BIDx1, […]): 1.01 ± 0.10 fold or % | Nfkbia fold increase over or percent reduction vs vehicle control (150 mg/kg BIDx1, […]): 8.21 ± 16.85 fold or % | Nod1 fold increase over or percent reduction vs vehicle control (150 mg/kg BIDx1, […]): 0.36 ± 14.65 fold or % | Raf1 fold increase over or percent reduction vs vehicle control (150 mg/kg BIDx1, […]): 7.66 ± 4.64 fold or % | Rel fold increase over or percent reduction vs vehicle control (150 mg/kg BIDx1, […]): 4.74 ± 2.26 fold or % | Rela fold increase over or percent reduction vs vehicle control (150 mg/kg BIDx1, […]): 20.75 ± 9.37 fold or % | Relb fold increase over or percent reduction vs vehicle control (150 mg/kg BIDx1, […]): 14.05 ± 6.91 fold or % | Ripk1 fold increase over or percent reduction vs vehicle control (150 mg/kg BIDx1, […]): 2.92 ± 15.10 fold or % | Ripk2 fold increase over or percent reduction vs vehicle control (150 mg/kg BIDx1, […]): 1.11 ± 0.29 fold or % | Slc20a1 fold increase over or percent reduction vs vehicle control (150 mg/kg BIDx1, […]): 20.53 ± 3.61 fold or % | Smad3 fold increase over or percent reduction vs vehicle control (150 mg/kg BIDx1, […]): 0.01 ± 11.30 fold or % | Stat1 fold increase over or percent reduction vs vehicle control (150 mg/kg BIDx1, […]): 1.20 ± 0.33 fold or % | Tbk1 fold increase over or percent reduction vs vehicle control (150 mg/kg BIDx1, […]): 1.03 ± 0.18 fold or % | Tlr1 fold increase over or percent reduction vs vehicle control (150 mg/kg BIDx1, […]): 1.33 ± 0.37 fold or % | Tlr2 fold increase over or percent reduction vs vehicle control (150 mg/kg BIDx1, […]): 1.05 ± 0.08 fold or % | Tlr3 fold increase over or percent reduction vs vehicle control (150 mg/kg BIDx1, […]): 1.02 ± 0.15 fold or % | Tlr4 fold increase over or percent reduction vs vehicle control (150 mg/kg BIDx1, […]): 1.04 ± 0.09 fold or % | Tlr6 fold increase over or percent reduction vs vehicle control (150 mg/kg BIDx1, […]): 0.43 ± 6.189 fold or % | Tlr9 fold increase over or percent reduction vs vehicle control (150 mg/kg BIDx1, […]): 1.29 ± 0.19 fold or % | Tnf fold increase over or percent reduction vs vehicle control (150 mg/kg BIDx1, […]): 1.12 ± 0.27 fold or % | Tnfaip3 fold increase over or percent reduction vs vehicle control (150 mg/kg BIDx1, […]): 11.08 ± 10.07 fold or % | Tnfrsf1a fold increase over or percent reduction vs vehicle control (150 mg/kg BIDx1, […]): 17.69 ± 12.43 fold or % | Tnfrsf1b fold increase over or percent reduction vs vehicle control (150 mg/kg BIDx1, […]): 1.08 ± 0.19 fold or % | Tnfrsf10b fold increase over or percent reduction vs vehicle control (150 mg/kg BIDx1, […]): 1.19 ± 15.33 fold or % | Tnfsf10 fold increase over or percent reduction vs vehicle control (150 mg/kg BIDx1, […]): 1.18 ± 0.41 fold or % | Tnfsf14 fold increase over or percent reduction vs vehicle control (150 mg/kg BIDx1, […]): 1.09 ± 0.34 fold or % | Tollip fold increase over or percent reduction vs vehicle control (150 mg/kg BIDx1, […]): 13.73 ± 7.04 fold or % | Tradd fold increase over or percent reduction vs vehicle control (150 mg/kg BIDx1, […]): 1.02 ± 0.22 fold or % | Traf2 fold increase over or percent reduction vs vehicle control (150 mg/kg BIDx1, […]): 1.01 ± 0.11 fold or % | Traf3 fold increase over or percent reduction vs vehicle control (150 mg/kg BIDx1, […]): 17.66 ± 4.06 fold or % | Traf5 fold increase over or percent reduction vs vehicle control (150 mg/kg BIDx1, […]): 1.10 ± 0.12 fold or % | Traf6 fold increase over or percent reduction vs vehicle control (150 mg/kg BIDx1, […]): 12.35 ± 5.34 fold or % | Zap70 fold increase over or percent reduction vs vehicle control (150 mg/kg BIDx1, […]): 2.40 ± 0.39 fold or % | Ccl2 mRNA downregulation (24 h): 57.69% | Csf2 mRNA downregulation (24 h): 61.29% | Egfr mRNA downregulation (24 h): 28.45% | Fas1 mRNA downregulation (24 h): 31.85% | Ifnγ mRNA downregulation (24 h): 35.82% | Il1α mRNA downregulation (24 h): 13.50% | Il1β mRNA downregulation (24 h): 63.25% | Ccl2 mRNA downregulation (48 h): 67.28% | Csf2 mRNA downregulation (48 h): 62.24% | Egfr mRNA downregulation (48 h): 24.42% | Ifnγ mRNA downregulation (48 h): 43.46% | Il1α mRNA downregulation (48 h): 28.88% | Il1β mRNA downregulation (48 h): 18.73% | Ccl2 mRNA downregulation (72 h): 52.53% | Fas1 mRNA downregulation (72 h): 42.85% | Ifnγ mRNA downregulation (72 h): 22.04% | Il1α mRNA downregulation (72 h): 63.60% | Il1β mRNA downregulation (72 h): 84.09% | Egfr mRNA downregulation ([…]): 41.90%
